In patent US6368631B1, “Fine grain carriers and medicinal composition prepared with the use of the same” (Daiichi Pharmaceutical Co., Ltd., priority 1996, dated 2002):

How the values were obtained:
[1] = tested on: ionized calcium concentration in blood; test: In vivo evaluation of nanoparticle-sCT preparations: change of blood ionized calcium concentration after peroral administration; parameters: species or system SD male rats; settings: rats fasted 24 h, 0.5 ml preparation, single administration
Experimental: To SD male rats (7 weeks old, about 200 g) fasted for 24 hours were administered perorally the nanoparticle preparation (0.5 ml) prepared in Example 3 or the control preparation (0.5 ml) (n=5). After administration, blood was collected from the tail vein of each rat in an amount of about 60 μl at 40 minutes, 80 minutes, 2, 3, 4, 6, and 8 hours following the administration.
Using a 634 Ca^++/pH analyzer (Ciba-Coning), the concentration of ionized calcium in the collected blood was measured. The difference between the ionized calcium concentration at time 0 and that at each of the aforementioned times was calculated and plotted. From the plots, presence or absence of the effect of absorption enhancement obtained through formation of nanoparticles was determined.
In this connection, sCT is known to have the pharmacological effect of reducing the blood ionized calcium concentration.
By use of the nanoparticle preparation or the control preparation obtained in Example 7, the procedure of Example 4 was repeated to thereby determine the presence or absence of the effect of absorption enhancement obtained by the formation of nanoparticles.
By use of the nanoparticle preparation or the control preparation obtained in Example 9, the procedure of Example 4 was repeated to thereby determine the presence or absence of the effect of absorption enhancement obtained by the formation of nanoparticles. […]

[2] = In vivo evaluation of the complex of nanoparticles and PSP: plasma PSP concentration and pharmacokinetic parameters after duodenal administration; settings: male, SD, rats, 9.4 mg in terms of PSP per rat, n=6, mean ± S.D.
Experimental: SD male rats (7 weeks old, about 200 g) were fasted for 24 hours. Under etherization, laparotomy was performed. By use of an injection needle, which was inserted through the pyrolus, the nanoparticle preparation (0.5 ml) prepared in Example 1 or the control preparation (0.5 ml) was administered duodenumally to the rats (dose: 9.4 mg in terms of PSP per rat; n=6). The cut was closed immediately after administration. Blood was collected from the carotid artery at 0.5, 1, 2, 4, 8, 12, and 24 hours following the administration. In accordance with the method of […] (Journal of Pharmaceutical Science, 79, 334, 1990), the plasma PSP concentration of each rat was measured. The plasma (0.3 ml) that had been centrifugally separated from the collected blood, purified water (0.3 ml), and aqueous 0.1 N NaOH solution (0.9 ml) were mixed. The mixture was filtered through use of an ultrafilter membrane (molecular weight of fractionation=10,000), to thereby remove proteins, etc. The filtrate was used as a sample solution. Separately, standard solutions were prepared through use of aqueous PSP-Na solutions (starting from 9.4 mg/ml in terms of PSP, a series of 2-fold dilutions) (0.3 ml each), a blank plasma from each rat (0.3 ml), and aqueous 0.1 N NaOH solution (0.9 ml) were mixed and ultrafiltered. For each of the sample solutions and standard solutions, absorption was determined through use of a spectrometer at the wavelength of 560 nm. Based on the results obtained from the standard solutions, a calibration curve was obtained, and the plasma PSP concentrations were measured. Based on the obtained time-plasma PSP concentration profile, pharmacokinetic parameters were calculated.

| Compound | effect of reducing the blood ionized calcium concentration [1] | AUC(0-inf) [2] [ng·h/mL] | Cmax [2] [ng/mL] | Tmax [2] [h] | MRT last ([2]; read-out: MRT0-24 h) [h] |
| --- | --- | --- | --- | --- | --- |
| salmon calcitonin [aqueous sCT solution] | slightly decreased |  |  |  |  |
| O=S1(=O)OC(c2ccc(O)cc2)(c2ccc(O)cc2)c2ccccc21 [Aq. PSP-Na sol. (control prep.), phenolsulfonphthalein] |  | 9970 ± 2200 | 2000 ± 290 | 0.92 ± 0.2 | 4.57 ± 0.34 |
